Measurements as given in ChEMBL document CHEMBL5390202, “Cannabinoid Receptor Type II Ligands from Sandalwood Oil and Synthetic α-Santalol Derivatives” (J Nat Prod, 2023).
Active and inactive are the calls of the source. No cut-off for these calls is given here.

Assays:
[1] = molecular target: T1, Cannabinoid receptor 2 (Homo sapiens, UniProt P34972); assay: Displacement of [3H]-CP55940 from human CB2 receptor expressed in CHO cell membranes assessed as inhibition constant incubated for 1 hr by TopCount liquid scintillation counting analysis; set-up: species or system Membrane
[2] = molecular target: T1, Cannabinoid receptor 2; assay: Displacement of [3H]-CP55940 from human CB2 receptor expressed in CHO cell membranes at 10 uM incubated for 1 hr by TopCount liquid scintillation counting analysis relative to control; settings: Membrane
[3] = molecular target: T1, Cannabinoid receptor 2; assay: Agonist activity at CB2 receptor (unknown origin) expressed in human SH-SY5Y cells assessed as increase in intracellular calcium flux at 3.2 to 10 uM incubated for 3 mins in presence of 10 uM raloxifene by Fluo-4AM dye based fluorescence analysis; assay type: functional, cell-based; settings: dose 3.2-10 µM
[4] = molecular target: T1, Cannabinoid receptor 2; assay: Agonist activity at CB2 receptor (unknown origin) expressed in human SH-SY5Y cells assessed as increase in intracellular calcium flux at 3.2 to 10 uM incubated for 3 mins by Fluo-4AM dye based fluorescence analysis; assay type: functional, cell-based; settings: filed as agonist, dose 3.2-10 µM
[5] = molecular target: T1, Cannabinoid receptor 2; assay: Agonist activity at CB2 receptor (unknown origin) expressed in human SH-SY5Y cells assessed as increase in intracellular calcium flux at 3.2 to 10 uM incubated for 3 mins in presence of 60 nM AM-630 by Fluo-4AM dye based fluorescence analysis; assay type: functional, cell-based; settings: dose 3.2-10 µM
[6] = molecular target: Cannabinoid receptor 1 (Homo sapiens) (UniProt P21554); assay: Displacement of [3H]-CP55940 from human CB1 receptor expressed in CHO cell membranes at 10 uM incubated for 1 hr by TopCount liquid scintillation counting analysis relative to control; settings: Membrane
[7] = molecular target: T1, Cannabinoid receptor 2; assay: Agonist activity at CB2 receptor (unknown origin) expressed in human SH-SY5Y cells assessed as increase in intracellular calcium flux at 0.032 to 0.1 uM incubated for 3 mins by Fluo-4AM dye based fluorescence analysis; assay type: functional, cell-based; settings: filed as agonist, dose 0.032-0.1 µM
[8] = molecular target: T1, Cannabinoid receptor 2; assay: Potency index, ratio of alpha-santalol Ki to test compound Ki for displacement of [3H]-CP55940 from human CB2 receptor expressed in CHO cell membranes incubated for 1 hr by TopCount liquid scintillation counting analysis; settings: Membrane, filed as agonist
[9] = molecular target: T1, Cannabinoid receptor 2; assay: Agonist activity at CB2 receptor (unknown origin) expressed in human SH-SY5Y cells assessed as increase in intracellular calcium flux at 0.032 to 0.1 uM incubated for 3 mins in presence of 10 uM raloxifene by Fluo-4AM dye based fluorescence analysis; assay type: functional, cell-based; settings: dose 0.032-0.1 µM
[10] = molecular target: T1, Cannabinoid receptor 2; assay: Agonist activity at CB2 receptor (unknown origin) expressed in human SH-SY5Y cells assessed as increase in intracellular calcium flux at 0.032 to 0.1 uM incubated for 3 mins in presence of 60 nM AM-630 by Fluo-4AM dye based fluorescence analysis; assay type: functional, cell-based; settings: dose 0.032-0.1 µM
[11] = molecular target: 5-hydroxytryptamine receptor 2A (Rattus norvegicus, UniProt P14842); assay: Displacement of [3H]-ketanserin from rat brain cortex 5-HT2A receptor incubated for 60 mins by liquid scintillation counting analysis; assay type: tissue-based
[12] = molecular target: D(2) dopamine receptor (Rattus norvegicus, UniProt P61169); assay: Displacement of [3H]-raclopride from rat brain striatum dopamine D2 receptor incubated for 60 mins by liquid scintillation counting analysis; assay type: tissue-based
Chain of D(2) dopamine receptor (P61169 whole entry): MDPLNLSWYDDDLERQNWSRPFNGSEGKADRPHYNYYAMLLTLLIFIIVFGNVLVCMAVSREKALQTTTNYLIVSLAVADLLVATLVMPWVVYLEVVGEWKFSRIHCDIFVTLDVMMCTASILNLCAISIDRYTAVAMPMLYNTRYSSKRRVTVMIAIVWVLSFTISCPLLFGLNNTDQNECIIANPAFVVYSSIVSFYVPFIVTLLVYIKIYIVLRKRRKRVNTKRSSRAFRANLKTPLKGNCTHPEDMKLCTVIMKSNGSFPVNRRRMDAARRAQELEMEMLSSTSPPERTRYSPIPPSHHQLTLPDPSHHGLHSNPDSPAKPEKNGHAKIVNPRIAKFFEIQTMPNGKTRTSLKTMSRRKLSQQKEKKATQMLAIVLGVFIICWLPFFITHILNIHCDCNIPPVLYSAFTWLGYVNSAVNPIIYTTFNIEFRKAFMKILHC

Chain of Cannabinoid receptor 1 (Homo sapiens) (P21554 whole entry): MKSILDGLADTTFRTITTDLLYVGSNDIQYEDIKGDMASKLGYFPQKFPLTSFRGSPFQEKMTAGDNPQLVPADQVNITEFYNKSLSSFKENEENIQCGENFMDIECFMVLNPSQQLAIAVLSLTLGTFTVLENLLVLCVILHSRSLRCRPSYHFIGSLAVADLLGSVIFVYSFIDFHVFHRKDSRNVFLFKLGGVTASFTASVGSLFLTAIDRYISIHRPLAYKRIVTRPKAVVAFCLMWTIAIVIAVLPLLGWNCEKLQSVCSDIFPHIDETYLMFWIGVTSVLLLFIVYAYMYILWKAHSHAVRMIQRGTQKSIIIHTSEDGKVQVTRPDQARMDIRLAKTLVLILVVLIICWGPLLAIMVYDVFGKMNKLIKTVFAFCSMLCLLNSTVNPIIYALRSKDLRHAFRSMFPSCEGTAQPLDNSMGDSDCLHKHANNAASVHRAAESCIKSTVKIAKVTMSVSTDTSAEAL
T1 sequence (P34972 whole entry): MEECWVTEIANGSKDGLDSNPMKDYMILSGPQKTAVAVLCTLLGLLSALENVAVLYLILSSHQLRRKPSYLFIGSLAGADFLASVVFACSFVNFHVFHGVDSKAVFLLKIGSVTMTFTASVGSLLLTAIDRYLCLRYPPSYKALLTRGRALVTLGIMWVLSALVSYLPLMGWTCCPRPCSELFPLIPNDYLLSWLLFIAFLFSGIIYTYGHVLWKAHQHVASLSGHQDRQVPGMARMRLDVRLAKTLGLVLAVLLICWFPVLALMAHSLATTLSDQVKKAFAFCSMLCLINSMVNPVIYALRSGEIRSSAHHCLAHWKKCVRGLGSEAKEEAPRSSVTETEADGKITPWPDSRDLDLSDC
Chain of 5-hydroxytryptamine receptor 2A (P14842 whole entry): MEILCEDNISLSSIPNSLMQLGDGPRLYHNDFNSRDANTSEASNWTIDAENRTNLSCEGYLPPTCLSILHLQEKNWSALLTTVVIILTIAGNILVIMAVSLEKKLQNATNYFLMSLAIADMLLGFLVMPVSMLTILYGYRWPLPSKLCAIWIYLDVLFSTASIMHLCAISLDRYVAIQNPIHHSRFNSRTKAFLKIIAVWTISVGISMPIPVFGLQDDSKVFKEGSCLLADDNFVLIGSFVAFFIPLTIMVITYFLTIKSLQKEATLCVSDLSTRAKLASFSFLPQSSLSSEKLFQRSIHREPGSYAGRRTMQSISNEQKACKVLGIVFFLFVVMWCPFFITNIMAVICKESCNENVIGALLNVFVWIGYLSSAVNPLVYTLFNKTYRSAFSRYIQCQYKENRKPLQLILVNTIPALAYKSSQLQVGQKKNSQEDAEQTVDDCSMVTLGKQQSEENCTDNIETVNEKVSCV

`O=C(c1ccc(OCCN2CCCCC2)cc1)c1c(-c2ccc(O)cc2)sc2cc(O)ccc12` [RALOXIFENE] showed a Ki [1] of about 0.24 µM.
Work on `C/C(=C/CC[C@]1(C)[C@@H]2C[C@@H]3[C@H](C2)[C@@]31C)CN1CCCC1` yielded an Activity [2] of 8.03%.
Work on `C/C(=C/CC[C@]1(C)[C@@H]2C[C@@H]3[C@H](C2)[C@@]31C)CN1CCCCC1` yielded an Activity [2] of 16.8%.
With `C/C(=C/CC[C@]1(C)[C@@H]2C[C@@H]3[C@H](C2)[C@@]31C)COC(=O)CCC(=O)O` the Activity [2] was 5.82%.
Work on `C/C(=C/CC[C@]1(C)[C@@H]2C[C@@H]3[C@H](C2)[C@@]31C)CNNC(=O)c1ccc(N(C)C)cc1` yielded an Activity [2] of 26.5%.
`C/C(=C/CC[C@]1(C)[C@@H]2C[C@@H]3[C@H](C2)[C@@]31C)CNNC(=O)c1ccccc1` was tested, and the Activity [2] was 26.9%.
In the case of `C/C(=C/CC[C@]1(C)[C@@H]2C[C@@H]3[C@H](C2)[C@@]31C)CN(C)C`, the Activity [2] is reported as 2.94%.
For `C=C1[C@@H]2CC[C@@H](C2)[C@@]1(C)CC/C=C(/C)CO`, the Activity [3] was “inactive”, the Activity [4] was “Active” and the Activity [5] was “inactive”. The Ki [1] was 8.19 µM, the Activity [6] was under 16% and the Activity ([2]; filed as agonist) was 55.8%.
For `C/C(=C/CC[C@]1(C)[C@H]2C[C@@H]3[C@@H](C2)[C@]31C)CN1CCN(C)CC1`, the Activity [7] was “Active”, the Ki [1] was 0.99 µM and the Activity [6] was under 20%. For the same compound, the Ratio Ki [8] was 10.6, the Activity [9] was “inactive” and the Activity [10] was “inactive”. For the same compound, the Activity ([2]; filed as agonist) was 82.1%.
Compound `C/C(=C/CC[C@]1(C)[C@@H]2C[C@@H]3[C@H](C2)[C@@]31C)CN1CCOCC1` has an Activity [2] of 21.3%.
Compound `COc1ccc(C(=O)c2c(C)n(CCN3CCOCC3)c3cc(I)ccc23)cc1` has an Activity ([2]; filed as antagonist) of 93%.
With `C/C(=C/CC[C@]1(C)[C@H]2CC3[C@H](C2)[C@]31C)CO` the IC50 [11] was 180 µM, the Activity [3] was “inactive” and the Activity [4] was “Active”. For the same compound, the Activity [5] was “inactive”, the Ki [1] was 10.5 µM and the Activity [6] was under 16%. For the same compound, the Activity ([2]; filed as agonist) was 62.5% and the IC50 [12] was 75 µM.
`C/C(=C/CC[C@]1(C)[C@@H]2C[C@@H]3[C@H](C2)[C@@]31C)CN(CCO)CCO` was tested, and the Activity [2] was 1.72%.
